Source: PMC4225009, “Structure-activity-relationship study of N-acyl-N-phenylpiperazines as potential inhibitors of the Excitatory Amino Acid Transporters (EAATs): improving the potency of a micromolar screening Hit is not truism” (SpringerPlus, 2013)
Like-named read-outs stand apart in the source and are kept apart here.

Tests used:
Format in all cases: cell-based
human EAAT1 = biological target: T1, human EAAT1 (Homo sapiens, UniProt P43003); test: [3H]-D-aspartate uptake assay at HEK293 cells stably expressing human EAAT1
T1 construct: expressed in transfected cells
T1 sequence (P43003 whole entry): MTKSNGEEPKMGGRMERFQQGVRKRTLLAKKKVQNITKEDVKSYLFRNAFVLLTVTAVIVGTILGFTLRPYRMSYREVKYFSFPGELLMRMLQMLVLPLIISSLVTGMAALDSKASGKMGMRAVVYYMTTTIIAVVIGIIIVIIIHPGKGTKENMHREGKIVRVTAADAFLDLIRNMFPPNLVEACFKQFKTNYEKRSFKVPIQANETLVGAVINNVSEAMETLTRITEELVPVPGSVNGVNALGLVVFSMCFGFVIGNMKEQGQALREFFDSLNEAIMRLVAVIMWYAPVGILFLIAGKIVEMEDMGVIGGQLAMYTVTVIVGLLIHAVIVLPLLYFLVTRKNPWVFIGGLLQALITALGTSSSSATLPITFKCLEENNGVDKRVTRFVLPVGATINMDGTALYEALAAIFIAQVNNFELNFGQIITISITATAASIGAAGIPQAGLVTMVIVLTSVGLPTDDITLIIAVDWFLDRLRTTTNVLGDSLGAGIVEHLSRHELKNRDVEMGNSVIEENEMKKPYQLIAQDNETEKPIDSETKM
Excerpt: (§1) In total, […] piperazine analogs 2.1-2.40 and 3.1-3.12 were characterized pharmacologically at stable HEK293 cells expressing human EAAT1-3 in a [^3H]-D-aspartate uptake assay, (Jensen & Bräuner-Osborne [2004]) and the results are summarized in Table 1 and Table 2. […] Usually, such findings would lead to the conclusion that the bicyclo-[2.2.1]-heptanyl group occupies a promiscuous hydrophobic pocket, which could be optimized for increased potency. However, upon increasing or decreasing the hydrophobic bulk and/or flexibility, a clear drop in potency was observed (analogs 2.1-2.17, Table 1). […] These findings could open up for the hypothesis that the pocket is indeed not hydrophobic but instead hydrophilic in nature. Upon binding of the hydrophobic alkane group, water molecules are forced out and ligand binding is entropically driven rather than enthalpically. Thus analogs 2.18-2.31, which comprise a hydrophobic group, could be potential inhibitors.
(§2) Analogs 2.22-2.31, 2.36-2.40, 3.3, 3.4, 3.6 and 3.12 were obtained as 5 mg portions pre-dissolved in DMSO from ChemBridge corporation and used directly in the [3H]-Asp-uptake assay.

human EAAT2 = biological target: T2, human EAAT2 (Homo sapiens, UniProt P43004); test: [3H]-D-aspartate uptake assay at HEK293 cells stably expressing human EAAT2
T2 construct: expressed in transfected cells
T2 sequence (P43004 whole entry): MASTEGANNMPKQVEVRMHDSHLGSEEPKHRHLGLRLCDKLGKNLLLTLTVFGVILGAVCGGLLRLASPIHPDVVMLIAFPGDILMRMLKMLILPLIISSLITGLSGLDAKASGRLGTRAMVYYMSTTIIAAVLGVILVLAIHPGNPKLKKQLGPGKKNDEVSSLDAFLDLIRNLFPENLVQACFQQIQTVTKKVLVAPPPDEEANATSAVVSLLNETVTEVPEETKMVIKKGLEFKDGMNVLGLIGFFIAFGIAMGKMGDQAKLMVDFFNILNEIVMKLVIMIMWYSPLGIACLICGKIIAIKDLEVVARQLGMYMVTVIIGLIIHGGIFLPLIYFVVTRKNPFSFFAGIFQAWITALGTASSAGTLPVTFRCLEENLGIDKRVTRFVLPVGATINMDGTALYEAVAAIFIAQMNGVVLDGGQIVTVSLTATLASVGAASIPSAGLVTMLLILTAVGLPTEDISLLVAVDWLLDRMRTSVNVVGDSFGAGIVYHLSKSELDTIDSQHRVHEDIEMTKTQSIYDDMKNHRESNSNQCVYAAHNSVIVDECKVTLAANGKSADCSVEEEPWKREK
Excerpt: as §1, §2

human EAAT3 = biological target: T3, human EAAT3 (Homo sapiens, UniProt P43005); test: [3H]-D-aspartate uptake assay at HEK293 cells stably expressing human EAAT3; conditions: for EAAT3 pIC50 ± S.E.M.: value in brackets, Table 1
T3 construct: expressed in transfected cells
T3 sequence (P43005 1-524): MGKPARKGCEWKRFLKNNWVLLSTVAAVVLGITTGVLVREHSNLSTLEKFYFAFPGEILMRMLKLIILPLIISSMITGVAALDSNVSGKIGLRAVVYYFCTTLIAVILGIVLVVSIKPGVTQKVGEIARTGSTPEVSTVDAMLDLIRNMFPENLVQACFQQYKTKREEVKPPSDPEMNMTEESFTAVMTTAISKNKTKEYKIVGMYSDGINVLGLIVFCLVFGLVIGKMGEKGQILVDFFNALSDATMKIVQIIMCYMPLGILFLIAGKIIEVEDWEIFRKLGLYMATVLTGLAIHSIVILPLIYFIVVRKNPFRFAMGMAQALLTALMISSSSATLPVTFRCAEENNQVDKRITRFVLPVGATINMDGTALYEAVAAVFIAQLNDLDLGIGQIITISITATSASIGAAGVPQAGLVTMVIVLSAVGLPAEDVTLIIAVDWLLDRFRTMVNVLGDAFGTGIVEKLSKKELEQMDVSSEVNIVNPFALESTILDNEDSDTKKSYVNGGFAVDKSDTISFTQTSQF
Excerpt: as §1, §2

human EAAT1-3 = test: [3H]-D-aspartate uptake assay, statements made for EAAT1-3 together; conditions: HEK293 cells expressing human EAAT1-3, [3H]-D-aspartate uptake
Excerpt: as §1, §2

[1] = [3H]-D-aspartate uptake, HEK293 cells stably expressing human EAAT1, analogs 1 and 2.1-2.40 (Table 1), read-out: EAAT1 IC50
[2] = [3H]-D-aspartate uptake, HEK293 cells stably expressing human EAAT2, analogs 1 and 2.1-2.40 (Table 1), read-out: EAAT2 IC50
[3] = [3H]-D-aspartate uptake, HEK293 cells stably expressing human EAAT3, analogs 1 and 2.1-2.40 (Table 1), read-out: EAAT3 IC50
[4] = D-aspartate uptake, HEK293 cells stably expressing human EAAT1, analogs 3.1-3.12 (Table 2), read-out: EAAT1 IC50
[5] = D-aspartate uptake, HEK293 cells stably expressing human EAAT2, analogs 3.1-3.12 (Table 2), read-out: EAAT2 IC50
[6] = D-aspartate uptake, HEK293 cells stably expressing human EAAT3, analogs 3.1-3.12 (Table 2), read-out: EAAT3 IC50

Compound | IC50 (human EAAT1; [1]) [µM] | IC50 (human EAAT2; [2]) [µM] | IC50 (human EAAT3; [3]) [µM] | inhibitory activity at EAAT1-3 (in words) (human EAAT1-3) | IC50 (human EAAT1; [4]) [µM] | IC50 (human EAAT2; [5]) [µM] | IC50 (human EAAT3; [6]) [µM] | further results
FC(F)(F)c1cccc(N2CCN(CC3CC4CCC3C4)CC2)c1 (mixture of isomers) [(±)-endo-exo-2.34, (±)-endo-exo-Bicyclo[2.2.1]heptan-2-ylmethyl)-4-(3-(trifluoromethyl)phenyl)piperazine] | > 300 | > 300 | > 300 |  |  |  |  | 
O=C(C1CC2CCC1C2)N1CCN(c2cccc(C(F)(F)F)c2)CC1 (mixture of isomers) [(±)-exo-1] | 10 | 40 |  | IC50 values at the three transporters in the mid-micromolar range |  |  |  | IC50 (human EAAT1; value in brackets, Table 1, read-out: EAAT1 pIC50 ± S.E.M. (converted)): 9.33 µM; IC50 (human EAAT2; value in brackets, Table 1, read-out: EAAT2 pIC50 ± S.E.M. (converted)): 36.3 µM
O=C([C@@H]1C[C@@H]2CC[C@H]1C2)N1CCN(c2cccc(C(F)(F)F)c2)CC1 (racemic) [(±)-endo-1, (±)-endo-Bicyclo[2.2.1]heptan-2-yl(4-(3-(trifluoromethyl)phenyl)piperazin-1-yl)methanone] | 14 | 32 | 10 | inhibitory potency in the mid-micromolar range |  |  |  | EAAT1 pIC50 ± S.E.M. (human EAAT1; value in brackets, Table 1): 4.88 ± 0.09; EAAT2 pIC50 ± S.E.M. (human EAAT2; value in brackets, Table 1): 4.52 ± 0.12; EAAT3 pIC50 ± S.E.M. (human EAAT3): 5.04 ± 0.13
O=C(C1CC2CCC1C2)N1CCN(c2cccc(C(F)(F)F)c2)CC1 (racemic) [(±)-endo-exo-1, (±)-endo-exo-Bicyclo[2.2.1]heptan-2-yl(4-(3-(trifluoromethyl)phenyl)piperazin-1-yl)methanone] | 14 | 42 | 14 |  |  |  |  | EAAT1 pIC50 ± S.E.M. (human EAAT1; value in brackets, Table 1): 4.87 ± 0.08; EAAT2 pIC50 ± S.E.M. (human EAAT2; value in brackets, Table 1): 4.42 ± 0.11; EAAT3 pIC50 ± S.E.M. (human EAAT3): 4.94 ± 0.16
O=C(C1CC2CCC1C2)N1CCN(c2ccccc2)CC1 (racemic) [(±)-endo-exo-3.1, Bicyclo[2.2.1]heptan-2-yl(4-phenylpiperazin-1-yl)methanone] |  |  |  | loss of inhibitory activity | > 300 | > 300 | > 300 | 
O=C(C1CC2CCC1C2)N1CCN(c2ccccc2C(F)(F)F)CC1 (racemic) [(±)-endo-exo-3.5, (±)-endo-exo-Bicyclo[2.2.1]heptan-2-yl(4-(2-(trifluoromethyl)phenyl)piperazin-1-yl)methanone] |  |  |  | loss of inhibitory activity | ~300 | > 300 | > 300 | 
O=C(C1CC2CCC1C2)N1CCN(c2cccc(Cl)c2)CC1 (racemic) [(±)-endo-exo-3.7, (±)-endo-exo-Bicyclo[2.2.1]heptan-2-yl(4-(3-chlorophenyl)piperazin-1-yl)methanone] |  |  |  |  | ~300 | ~300 | > 300 | 
N#Cc1cccc(N2CCN(C(=O)C3CC4CCC3C4)CC2)c1 (racemic) [(±)-endo-exo-3.9, 3-(4-(bicyclo[2.2.1]heptane-2-carbonyl)piperazin-1-yl)benzonitrile] |  |  |  |  | > 300 | > 300 | > 300 | 
COc1cccc(N2CCN(C(=O)C3CC4CCC3C4)CC2)c1 (racemic) [(±)-endo-exo-3.10, (±)-endo-exo-Bicyclo[2.2.1]heptan-2-yl(4-(3-methoxyphenyl)piperazin-1-yl)methanone] |  |  |  |  | > 300 | > 300 | > 300 | 
O=C(C1CC2CCC1C2)N1CCN(c2ccc(F)cc2F)CC1 (racemic) [(±)-endo-exo-3.11, (±)-endo-exo-Bicyclo[2.2.1]heptan-2-yl(4-(2,4-difluorophenyl)piperazin-1-yl)methanone] |  |  |  |  | > 300 | > 300 | > 300 | 
O=C(C1CC2CCC1CC2)N1CCN(c2cccc(C(F)(F)F)c2)CC1 (centres unmarked) [2.1, Bicyclo[2.2.2]octan-2-yl(4-(3-(trifluoromethyl)phenyl)piperazin-1-yl)methanone] | > 300 | > 300 | > 300 |  |  |  |  | 
O=C(N1CCN(c2cccc(C(F)(F)F)c2)CC1)C12CC3CC(CC(C3)C1)C2 [2.2, Adamantan-1-yl(4-(3-(trifluoromethyl)phenyl)piperazin-1-yl)methanone] |  |  |  |  |  |  |  | IC50 (human EAAT1): > 300 µM; IC50 (human EAAT2): > 300 µM; IC50 (human EAAT3): > 300 µM
O=C(C1CCCC1)N1CCN(c2cccc(C(F)(F)F)c2)CC1 [2.4, Cyclopentyl(4-(3-(trifluoromethyl)phenyl)piperazin-1-yl)methanone] |  |  |  |  |  |  |  | IC50 (human EAAT1): > 300 µM; IC50 (human EAAT2): > 300 µM; IC50 (human EAAT3): > 300 µM
